Measured values published in patent publication US20240294541A1, “COMPOUNDS CONSTITUTING C20-MODIFIED SALINOMYCIN DERIVATIVES, A METHOD FOR OBTAINING THE SAME, A COMPOSITION CONTAINING THE SAME AND A USE OF SAID COMPOUNDS” (FILECLO SPOLKA Z OGRANICZONA ODPOWIEDZIALNOSCIA, priority 2021, published 2024).
Where two headings read alike, the source gives them in different places.

What was measured:
Assay type in all cases: cell-based
[1] = test system: NCI-H358 (human lung cancer); test: cells; settings: Table 4; for IC50: NCI-H358 human lung cancer cells, read-out: IC50 (nM) NCI-H358
[2] = test system: MIA PaCa-2 (human pancreatic cancer); test: cells; settings: for MIA PaCa-2 SI: selectivity coefficient vs normal BALB/3T3 cells
[3] = test system: MV-4-11 (human biphenotypic leukaemia); test: In vitro cytotoxicity, MTT assay, MV-4-11
[4] = test system: PLC/PRF/5 (human liver cancer); test: cells; settings: for PLC/PRF/5 SI: selectivity coefficient vs normal BALB/3T3 cells
[5] = test system: BALB/3T3 (normal mouse fibroblasts); test: In vitro cytotoxicity, SRB assay, normal BALB/3T3 fibroblasts
[6] = test system: A2780Cis (cisplatin-resistant human ovarian cancer); test: In vitro cytotoxicity, SRB assay, A2780Cis; settings: for IC50: Homo sapiens, A2780cis
Hs294T (human melanoma) = test: cells; settings: for IC50: Hs 294T; for Hs294T SI: selectivity coefficient vs normal BALB/3T3 cells
[7] = test system: SNU-16 (human gastric cancer); test: cells; settings: for SNU-16 SI: selectivity coefficient vs normal BALB/3T3 cells
[8] = test system: PFSK-1 (malignant primitive neuroectodermal tumour); test: In vitro cytotoxicity, SRB assay, PFSK-1; settings: for IC50: Homo sapiens; for PFSK-1 SI: selectivity coefficient vs normal BALB/3T3 cells
[9] = test system: A2780 (human ovarian cancer); test: In vitro cytotoxicity, SRB assay, A2780; settings: for IC50: Homo sapiens; for A2780 SI: selectivity coefficient vs normal BALB/3T3 cells
[10] = test system: KG-1 (human acute myeloid leukaemia); test: In vitro cytotoxicity, MTT assay, KG-1; settings: for IC50: Homo sapiens, 72 h with compound, MTT, n/a = non-active compound; for KG-1 SI: selectivity coefficient vs normal BALB/3T3 cells
[11] = test system: NCI-H23 (human lung cancer); test: In vitro cytotoxicity, SRB assay, NCI-H23; settings: for IC50: Homo sapiens; for NCI-H23 SI: selectivity coefficient vs normal BALB/3T3 cells
A375 (human melanoma) = test: In vitro cytotoxicity, SRB assay, A375; settings: for IC50: Homo sapiens; for A375 SI: selectivity coefficient vs normal BALB/3T3 cells
[12] = Table 4, MIA PaCa-2 human pancreatic cancer cells, read-out: IC50 (nM) MIA PaCa-2
[13] = Table 4, selectivity coefficient vs normal BALB/3T3 fibroblasts
[14] = Table 4, PLC/PRF/5 human liver cancer cells, read-out: IC50 (nM) PLC/PRF/5
[15] = Table 4, Hs294T human melanoma cells, read-out: IC50 (nM) Hs294T
[16] = Table 4, SNU-16 human gastric cancer cells, read-out: IC50 (nM) SNU-16
[17] = Homo sapiens, 72 h with compound, SRB, n/a = non-active compound, read-out: Hs294T IC50
[18] = Homo sapiens, SNU-16, 72 h with compound, MTT, n/a = non-active compound, read-out: SNU-16 IC50
[19] = Homo sapiens, MIA PaCa-2, 72 h with compound, SRB, n/a = non-active compound, read-out: MIA PaCa-2 IC50
[20] = Homo sapiens, PLC-PRF-5, 72 h with compound, SRB, n/a = non-active compound, read-out: PLC/PRF/5 IC50
[21] = Mus musculus, BALB/3T3, normal cells, 72 h with compound, SRB, n/a = non-active compound, read-out: BALB/3T3 IC50
[22] = 72 h, read-out: A2780Cis IC50 (nM)

## CC[C@@H](C(=O)[C@@H](C)[C@@H](O)[C@H](C)[C@@H]1O[C@@H]([C@@H](CC)C(=O)O)CC[C@@H]1C)[C@H]1O[C@]2(C=C[C@@H](NC(=O)C(N)=O)[C@]3(CC[C@@](C)([C@H]4CC[C@](O)(CC)[C@H](C)O4)O3)O2)[C@H](C)C[C@@H]1C [FLC-00376-1•Na]
[1]
  IC50: 5310 nM
[1]; selectivity coefficient vs normal BALB/3T3 fibroblasts
  SI NCI-H358: 0.87
[2]; [12]
  IC50: 1850 nM
[2]; [13]
  SI MIA PaCa-2: 2.5
[3]
  SI MV4-11: 7.0
[3]; Homo sapiens, MV4-11, read-out: IC50 (nM) MV4-11
  IC50: 663 nM
[4]; [14]
  IC50: 1360 nM
[4]; [13]
  SI PLC/PRF/5: 3.4
[5]; Table 4, BALB/3T3 normal mouse fibroblasts, read-out: IC50 (nM) BALB3T3 normal cells
  IC50: 4640 nM
[6]
  SI A2780Cis: 10.6
[6]; read-out: IC50 (nM) A2780Cis
  IC50: 436 nM

## CC[C@@H](C(=O)[C@@H](C)[C@@H](O)[C@H](C)[C@@H]1O[C@@H]([C@@H](CC)C(=O)O)CC[C@@H]1C)[C@H]1O[C@]2(C=C[C@@H](NC(=S)Nc3cccc(C(F)(F)F)c3)[C@]3(CC[C@@](C)([C@H]4CC[C@](O)(CC)[C@H](C)O4)O3)O2)[C@H](C)C[C@@H]1C [FLC-00386-1]
[1]
  IC50: 51.3 nM
Hs294T (human melanoma); [15]
  IC50: 147 nM
[7]; [16]
  IC50: 10.1 nM
[2]; [12]
  IC50: 11.3 nM
[4]; [14]
  IC50: 10.2 nM

## CC[C@@H](C(=O)[C@@H](C)[C@@H](O)[C@H](C)[C@@H]1O[C@@H]([C@@H](CC)C(=O)O)CC[C@@H]1C)[C@H]1O[C@]2(C=C[C@@H](NC(=O)OCc3ccccc3)[C@]3(CC[C@@](C)([C@H]4CC[C@](O)(CC)[C@H](C)O4)O3)O2)[C@H](C)C[C@@H]1C [FLC-00431-1•Na]
[1]
  IC50: 56.1 nM
Hs294T (human melanoma); [15]
  IC50: 115 nM
[7]; [16]
  IC50: 143 nM
[2]; [12]
  IC50: 28.9 nM
[4]; [14]
  IC50: 5.8 nM

## CC[C@@H](C(=O)[C@@H](C)[C@@H](O)[C@H](C)[C@@H]1O[C@@H]([C@@H](CC)C(=O)O)CC[C@@H]1C)[C@H]1O[C@]2(C=C[C@@H](NC(=S)NC3CCCCC3)[C@]3(CC[C@@](C)([C@H]4CC[C@](O)(CC)[C@H](C)O4)O3)O2)[C@H](C)C[C@@H]1C [FLC-00377-1]
[8]; PFSK-1, 72 h with compound, SRB, n/a = non-active compound, read-out: PFSK-1 IC50
  IC50: 7.82 nM
[8]
  PFSK-1 SI: 9.4
Hs294T (human melanoma); [17]
  IC50: 94.8 nM
Hs294T (human melanoma)
  Hs294T SI: 0.8
[9]; A2780, 72 h with compound, SRB, n/a = non-active compound, read-out: A2780 IC50
  IC50: 3.55 nM
[9]
  A2780 SI: 20.6
[10]
  IC50: 18.3 nM
  KG-1 SI: 4.0
[11]; NCI-H23, 72 h with compound, SRB, n/a = non-active compound, read-out: NCI-H23 IC50
  IC50: 5.7 nM
[11]
  NCI-H23 SI: 12.9
[7]; [18]
  IC50: 51.8 nM
[7]
  SNU-16 SI: 1.4
[2]; [19]
  IC50: 41.6 nM
[2]
  MIA PaCa-2 SI: 1.8
[4]; [20]
  IC50: 18.8 nM
[4]
  PLC/PRF/5 SI: 3.9
[5]; [21]
  IC50: 73.3 nM
[6]
  A2780Cis RI: 0.4
  A2780Cis SI: 47.2
[6]; [22]
  IC50: 1.56 nM
A375 (human melanoma); A-375, 72 h with compound, SRB, n/a = non-active compound, read-out: A375 IC50
  IC50: 65.5 nM
A375 (human melanoma)
  A375 SI: 1.1

## C=CCOC(=O)N[C@@H]1C=C[C@]2(O[C@H]([C@@H](CC)C(=O)[C@@H](C)[C@@H](O)[C@H](C)[C@@H]3O[C@@H]([C@@H](CC)C(=O)O)CC[C@@H]3C)[C@@H](C)C[C@H]2C)O[C@@]12CC[C@@](C)([C@H]1CC[C@](O)(CC)[C@H](C)O1)O2 [FLC-00425-1•Na]
[1]
  IC50: 234 nM
Hs294T (human melanoma); [15]
  IC50: 362 nM
[7]; [16]
  IC50: 420 nM
[2]; [12]
  IC50: 269 nM
[4]; [14]
  IC50: 26.5 nM

## CC[C@@H](C(=O)[C@@H](C)[C@@H](O)[C@H](C)[C@@H]1O[C@@H]([C@@H](CC)C(=O)O)CC[C@@H]1C)[C@H]1O[C@]2(C=C[C@@H](NC(=S)Nc3ccc(Cl)c(Cl)c3)[C@]3(CC[C@@](C)([C@H]4CC[C@](O)(CC)[C@H](C)O4)O3)O2)[C@H](C)C[C@@H]1C [FLC-00379-1]
[8]; PFSK-1, 72 h, read-out: PFSK-1 IC50 (nM)
  IC50: 6.6 nM
[8]
  PFSK-1 SI: 14.9
Hs294T (human melanoma); [17]
  IC50: 108 nM
Hs294T (human melanoma)
  Hs294T SI: 0.9
[9]; A2780, 72 h, read-out: A2780 IC50 (nM)
  IC50: 4.31 nM
[9]
  A2780 SI: 22.8
[10]
  IC50: 39 nM
  KG-1 SI: 2.5
[11]; NCI-H23, 72 h, read-out: NCI-H23 IC50 (nM)
  IC50: 8.96 nM
[11]
  NCI-H23 SI: 11.0
[7]; [18]
  IC50: 18 nM
[7]
  SNU-16 SI: 5.5
[2]; [19]
  IC50: 52.6 nM
[2]
  MIA PaCa-2 SI: 1.9
[4]; [20]
  IC50: 22.1 nM
[4]
  PLC/PRF/5 SI: 4.5
[5]; [21]
  IC50: 98.2 nM
[6]
  A2780Cis RI: 0.2
  A2780Cis SI: 121.2
[6]; [22]
  IC50: 0.81 nM
A375 (human melanoma); A-375, 72 h, read-out: A375 IC50 (nM)
  IC50: 68.1 nM
A375 (human melanoma)
  A375 SI: 1.4
